# Assay results taken from patent US9051240B2, “Substituted 2-[2-(phenyl) ethylamino] alkaneamide derivatives and their use as sodium and/or calcium channel modulators” (Newron Pharmaceuticals S.P.A., priority 2007, dated 2015).
# Like-named read-outs stand apart in the source and are kept apart here.
# Tests used:
# TTXs sodium channels = assay: TTXs-sodium channel influx assay (fluorescence, ND7/23 cell line); type: cell-based, rat; conditions: ND7/23 cells, veratridine 100 μM; read-out: Na+ influx IC50
# Method: ND7/23 rat dorsal root ganglion-derived cell line endogenously expresses a mixed population of TTXs sodium channels. These cells lack of TTXr sodium channels as shown by the absence of their respective transcripts.
# ND7/23 cells were grown in DMEM supplemented with 10% FBS and 1 mM sodium piruvate. The cells were seeded at 50,000 cells/well on 96 poly-L-lysine-coated plates and further incubated for 18-24 h before use.
# The Membrane Potential Kit Assay (Molecular Devices), based on a negatively charged fluorescent dye able to monitor changes in membrane potential caused by the sodium influx due to the channel opening, was used for the assay.
# Cells were incubated with the dye loading for 30 minutes at 25° C. Then, 100 nM of the toxin Anemonia sulcata (used as enhancer of the channel opener response) alone or in the presence of TTX (as reference standard) or test compound were added for further 15 minutes.
# The fluorescence (excitation:530 nm, emission: 565 nm wavelength) was measured before and after (40-45 s) the automated injection of the sodium channel opener veratridine (100 μM) using a Victor plate reader (Perkin Elmer).
# The inhibition curves were calculated from 5 concentrations, each in triplicate, and the IC50 determined using linear regression analysis.
# [1] = target: Na+ currents in rat cortical neurons; assay: Patch clamp evaluation of Na+ currents blockade in rat cortical neurons; type: cell-based; conditions: for Ki: calculated from Kr and Kdep, read-out: Ki (apparent affinity for the inactivated state)
# Method: Cortical neurons were prepared from embryonic Wistar rats (E17-E19). A female rat at date 17-19 of pregnancy was anesthetized and sacrificed. The fetuses (n=4-5) were dissected and placed in ice-cold Hank's solution (Hank's solution (Life tech.14170-088)+glucose 30%+Pen-Strep 100× (Life Tech. 15140-122) 100U-100 μg/ml and Hepes-NaOH 5 mM). The uterus and placenta were removed, the fetuses were decapitated and the heads were placed in ice-cold Hank's solution. Cells were counted and diluted in Neurobasal medium to a concentration of 400000 cells per poly-D-lysine 5 μg/ml treated Petri dish. Cortical neurons were used from day 6th till day 11th after plating, and once a week Neurobasal medium was changed. Experiments on cortical neurons were carried out using standard whole cell patch clamp methods (Hamill et al., Pfugers Arch., 1981 August, 391(12), 85-100). Membrane currents were recorded and filtered at 5 kHz with an Axon Axopatch 200B amplifier and data digitized with an Axon Digidata 1322A (Axon Instruments, CA, USA). Protocol playing and data acquisition were controlled online with Axon pClamp8 software. Measuring and reference electrodes were AgCl-Ag electrodes. A Sutter Instrument P-87 Puller (CA, USA) was used for pulling patch clamp pipettes with a resistance of 2-3 MΩ from Harward borosilicate glass tubes. Cells were continuously superfused with extracellular solutions, using a solution changer Biologic RSC-200. To test the effect of compounds on sodium currents in cortical neurons, cells were clamped at -90 mV, then a two step protocol was used to determine the voltage dependence of the block. […] Tonic block of resting and depolarized currents at a given drug concentration, was calculated as the difference between the peak Na^+ current in the control external bath solution and peak currents with the test substance divided by control peak. Drug concentration-inhibition curves were obtained by plotting tonic blocks in the resting and depolarized condition, versus drug concentrations. Dose-response curves were fitted to the tonic block data, according to the logistic equation: […] Control bath solution contained (mM): […] Internal pipette solution consisted of (mM): […] Compounds were dissolved as stock solutions (20 mM) in DMSO. They were diluted to the final concentrations in the external solution.
# mice = assay: Formalin test; type: in vivo; conditions: Mus musculus, po
# Method: According to a modified protocol from Rosland et al. (Rosland J. H., Tjolsen A., Maehle B., Hole K. Pain (1990) 42: 235-242), mice were injected subcutaneously (s.c.) with 20 μl of 2.7% solution of formalin into the plantar surface of left hindpaw and placed immediately into clear PVC observation chambers (23×12×13 cm). Pain behaviour was quantified by counting the cumulative licking time (s) of the injected paw. Measurements were taken during the early phase (0-5 min) and late phase (20-40 min) after formalin injection (Tjolsen A., Berge O. G., Hunskaar S., Rosland J. H., Hole K. Pain (1992) 51: 5-17).
# The test compound was administered p.o. or s.c. 5-45 minutes before formalin injection in a volume of 10 ml/kg body weight to groups of 10 mice per dose. Control group was treated with vehicle.
# MAO-B = MAO-B (Rattus norvegicus (Rat), UniProt P19643); assay: In vitro MAO-B enzyme activity assay (radioenzymatic, rat brain mitochondria); type: biochemical; conditions: 14C-PEA 0.5 μM
# Method: Male Wistar rats (Harlan, Italy weighing 175-200 g) were sacrificed under light anaesthesia and brains were rapidly removed and homogenized in 8 volumes of ice-cold 0.32 M sucrose buffer containing 0.1 M EDTA, pH 7.4. The crude homogenate was centrifuged at 2220 rpm for 10 minutes and the supernatant recovered. The pellet was homogenized and centrifuged again. The two supernatants were pooled and centrifuged at 9250 rpm for 10 minutes at +4° C. The pellet was resuspended in fresh buffer and centrifuged at 11250 rpm for 10 minutes at +4° C. The resulting pellet was stored at −80° C. The enzyme activity was assessed with a radioenzymatic assay using the substrate ^14C-phenylethylamine (PEA) specific for MAO-B. The mitochondrial pellet (500 μg protein) was resuspended in 0.1 M phosphate buffer (pH 7.4). 200 μl of the suspension were added to a 50 μl solution of the test compound or buffer, and incubated for 30 min at 37° C. (preincubation) then the substrate (50 μl) was added. The incubation was carried out for 10 minutes at 37° C. (^14C-PEA, 0.5 μM). The reaction was stopped by adding 0.2 ml of perchloric acid. After centrifugation, the deaminated metabolites were extracted with 3 ml of toluene and the radioactive organic phase containing the neutral and/or acidic metabolites formed as a result of MAO-B activity was measured by liquid scintillation spectrometry at 90% efficiency. The MAO-B activity was expressed as nmoles of substrate transformed/mg protein/min.
# [2] = preconditioning potential -110 mV, read-out: IC50 resting (Kr)
# [3] = preconditioning potential ~-50 mV, read-out: IC50 depolarized
# Sequence of MAO-B (P19643 whole entry): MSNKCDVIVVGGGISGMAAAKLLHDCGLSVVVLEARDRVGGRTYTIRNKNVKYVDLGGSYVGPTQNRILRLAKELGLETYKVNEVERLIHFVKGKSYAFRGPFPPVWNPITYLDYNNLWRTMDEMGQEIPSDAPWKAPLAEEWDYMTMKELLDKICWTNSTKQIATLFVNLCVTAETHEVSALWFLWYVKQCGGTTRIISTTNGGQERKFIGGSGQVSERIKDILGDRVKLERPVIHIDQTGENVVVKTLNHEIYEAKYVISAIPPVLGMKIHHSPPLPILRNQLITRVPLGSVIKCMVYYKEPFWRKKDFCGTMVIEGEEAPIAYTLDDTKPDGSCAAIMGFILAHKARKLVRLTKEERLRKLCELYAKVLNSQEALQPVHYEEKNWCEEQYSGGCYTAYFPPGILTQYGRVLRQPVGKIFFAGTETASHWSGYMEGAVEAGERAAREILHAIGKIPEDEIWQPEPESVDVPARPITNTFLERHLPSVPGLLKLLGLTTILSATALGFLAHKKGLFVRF
SMILES,IC50 (TTXs sodium channels),Ki [1],"IC50 [1, 2]","IC50 [1, 3]","IC50 ([1]; resting condition, figure in parentheses after >100, read-out: IC50 resting (Kr), value in parentheses)",ED50 (mice),IC50 (MAO-B)
"C[C@H](NCc1ccc(OCc2ccccc2F)cc1)C(N)=O [ralfinamide, (S)-(+)-2-[4-(2-fluorobenzyloxy)-benzylamino]-propanamide, reference compound]",9.5 µM,4700 nM,> 100 µM,9 µM,213 µM,29.3 mg/kg,0.2 µM
"CCCCOc1cccc(CCNCC(=O)N(C)C)c1.Cl [2-[2-(3-Butoxyphenyl)-ethylamino]-N,N-dimethylacetamide hydrochloride]",1.5 µM,400 nM,25 µM,0.8 µM,,14.9 mg/kg,231 µM
